Consider one compound from article PMC4906375, “Contribution of Amphipathicity and Hydrophobicity to the Antimicrobial Activity and Cytotoxicity of β-Hairpin Peptides” (ACS Infectious Diseases, 2016).

Molecules are shown by their SMILES.

The test system of one data set is HepG2 cells. As to the kind of experiment: Cytotoxicity, Alamar Blue (resazurin) assay. Conditions: HepG2; highest concentration (300 μM) tested. It is filed as cell-based, human. The method, then: (§1) Cytotoxicity to HEK293 and HepG2 cells was determined using the Alamar Blue (resazurin) assay,[55],[56] with 24 h of incubation and either 1 or 10% serum concentration. Full assay details are included in the Supporting Information.
(§2) Cytotoxicity. Cytotoxicity to HEK293 and HepG2 cells was determined using the Alamar Blue (resazurin) assay,3, 4 For the assays supplemented with 1 % FBS as final concentration the cells were seeded one day prior to the assay (3,000 per 20 µL for HEK293 and 4,000 per 20 µL for HepG2) with DMEM + 2 % FBS. The compounds were prepared as described below, using DMEM with no FBS instead to give the final FBS concentration of 1 %.
(§3) The highest concentration the compounds were tested was 300 µg/mL. A dilution series of 1:3 fold steps in DMEM (GIBCOPInvitrogen, cat. no. 11995P073) + 10 % FBS was created (concentration range of 600 µg/mL – 0.28 µg/mL), and 20 µL of these 2x concentrated compound dilutions were added in duplicates to wells of a black wall, clear bottom 384Pwells cell culture plate. For the assays with 1 % FBS the compounds in 0 % FBS were added to the existing cell plates in 2 % FBS. 200 µM Tamoxifen (Sigma T5648) served as negative control and in addition a serial dilution of tamoxifen, starting at 200 µM (74 µg/mL), was included as a dose response control (1 in 2 dilution series for tamoxifen). For the assay with 10 % FBS, HepG2 cells were seeded at 5000 cells per well, in a volume of 20 µL in DMEM medium + 10 % of FBS and added to the 20 µL of compound solution (total volume of 40 µL), resulting in a final compound concentration range of 300 µg/mL to 0.14 µg/mL.
(§4) Cells were incubated together with the compounds for 20 h at 37 °C, 5 % CO2.
(§5) After the incubation, 5 µL of 100 µM (25 µg/mL) resazurin dissolved in PBS (final concentration was approximately 11 µM) was added to each well. The plates were then incubated for 3 h at 37 °C, 5 % CO2. The fluorescence intensity was read using the TECAN Infinite M1000 PRO with excitation/emission 560/590. The data was analysed by Graph Pad Prism software. Results are presented as the average percentage of control ± SD for each set of duplicate wells using the following equation: Cell survival % = (FISAMPLE – FINegative/FIUNTREATED –FINegative)*100. (100 µg/mL tamoxifen was set as 0 % survival, media
A general note: Alamar Blue is a resazurin reagent that responds to reducing activity.

A further data set relates to HEK293 cells. As to the kind of experiment: Cytotoxicity, Alamar Blue (resazurin) assay. Type of data set: cell-based, human. Conditions: HEK293; highest concentration (300 μM) tested. As for the experimental part: as §1, §2, §3, §4, §5

On to `CC[C@H](C)[C@H](NC(=O)[C@@H](NC(=O)[C@@H]1CCCN1C(=O)[C@@H](NC(=O)[C@@H]1CCCN1C(=O)[C@H](CCCCN)NC(=O)[C@H](CCCCN)NC(=O)[C@H](CO)NC(=O)CN)C(C)C)[C@@H](C)CC)C(=O)N[C@@H](Cc1ccc(O)cc1)C(=O)N[C@H]1CSSC[C@@H](C(=O)N[C@@H](CCC(N)=O)C(=O)N[C@@H](CCCNC(=N)N)C(=O)N[C@@H](CCSC)C(N)=O)NC(=O)[C@H](CCCCN)NC(=O)CNC(=O)[C@H]([C@@H](C)O)NC(=O)[C@H](CCCNC(=N)N)NC(=O)[C@H](CCCNC(=N)N)NC(=O)[C@H](CC(N)=O)NC1=O` [thanatin], for which the “cytotoxicity at the highest concentration tested” value with HepG2 cells and in the data set with HEK293 cells was “nontoxic” each time.
